Values joined by “and” are separate entries in the source; they are usually repeats but may differ in a detail not shown here. Equal entries are not always repeated. Where two headings read alike, the source gives them in different places.
Assays:
[1] = Cellular cytotoxicity, 4 days, six HIV-1 host cell lines (ranges); type: cell-based; settings: human, read-out: Mean CC50 Range
Method: (§3) Cell viability was measured by standard MTT or MTS staining.

[2] = tested on: HIV-1 IIIB in MOLT-4 cells; assay: Drug susceptibility assay, IIIB in MOLT-4 cells; type: cell-based; settings: Human immunodeficiency virus 1, IIIB, MOLT-4, read-out: Average EC50 Values ± Standard Deviation, host MOLT-4, virus IIIB
Source text: (§1) The virus and host-cell dependency of Compound I, Compound III and control drugs was further examined in drug susceptibility assays performed across 3 different subtype B wild-type HIV-1 strains and 5 different cell lines.

HIV-1 BH10 in U937 cells = assay: Drug susceptibility assay, BH10 in U937 cells; type: cell-based; settings: Human immunodeficiency virus 1, U-937, read-out: Average EC50 Values ± Standard Deviation, host U937, virus BH10
Source text: as §1

[3] = Cellular cytotoxicity, 4 days, MTS, MOLT-4; type: cell-based; settings: human, Table 21, read-out: Average CC50 Values ± Standard Deviation, MOLT-4
Method: as §3

[4] = Longer term cytotoxicity, HeLa, HuH7 and HepG2 (ranges); settings: human, CC50 range, HuH7 and HepG2, 9-12 day testing
Method: as §3
Cells were repeatedly treated with a range of drug concentrations (0.005 to 100 μM) for 9 (HeLa) or 12 days (HuH7, HepG2).

HIV-1 IIIB in H9 cells = assay: Drug susceptibility assay, IIIB in H9 cells; type: cell-based; settings: Human immunodeficiency virus 1, IIIB, H9, read-out: Average EC50 Values ± Standard Deviation, host H9, virus IIIB
Source text: as §1

[5] = tested on: HIV-1 BH10 wild-type virus; assay: microbe, parasite or virus in culture; type: cell-based
[6] = tested on: HIV-1 IIIB K103R/V179D/P225H triple mutant virus; assay: microbe, parasite or virus in culture; type: cell-based; settings: for EC50: Human immunodeficiency virus 1, IIIB; for Fold Change, K103R/V179D/P225H: Table 16, IIIB
Method: (§2) The test articles were next profiled against a panel of HIV-1 IIIB laboratory cultivated mutants as summarized in the text below. Antiviral efficacy was determined via a CPE assay with an MTS read-out for cell viability.

HIV-1 IIIB w.t. virus = assay: microbe, parasite or virus in culture; type: cell-based; settings: IIIB
Method: as §2

[7] = tested on: HIV-1 K103N clinical isolates 4937 and 5002; assay: microbe, parasite or virus in culture; type: cell-based; settings: Human immunodeficiency virus 1, PBMC, read-out: Average EC50 Values ± Standard Deviation, K103N
[8] = tested on: 9 different HIV-1 subtypes (A, B, C, D, F1, G, H, AE, AG), 18 viruses; assay: PhenoSense testing, HIV-1 subtype panel; type: cell-based; settings: Human immunodeficiency virus 1, read-out: potency range, panel of 9 different HIV-1 subtypes
Source text: The activities of the test and control compounds were next tested against a subtype panel which covers all major HIV-1 subtypes or clades (A, B, C, D, F1, G, H, AE and AG). This panel was part of a 64 virus panel selected from the large library of clinical isolates Monogram BioSciences (formerly ViroLogics). Each of the subtypes in the panel was represented by 2 distinct viruses which share many sequence similarities, but also some key differences and therefore could respond differently to one or more of the drugs included in this study.

HIV-1 BH10 W.T. = assay: Anti-HIV-1 BH10 W.T. activity in presence of HS or AAG; type: cell-based
HIV-1 NL4-3 K103N virus = assay: microbe, parasite or virus in culture; type: cell-based
HIV-1 W.T. (NL4-3) virus = assay: PBMC cell assay, W.T. (NL4-3); type: cell-based; settings: Human immunodeficiency virus 1, NL43, PBMC
[9] = Cellular cytotoxicity, 4 days, MTS, MT-4; settings: human, Average CC50 Values ± Standard Deviation, MT-4, Table 21; 4 days, MTS
Method: Following drug exposure for 4 days, cell viability was measured by MTS staining and CC50 values were determined. Drug concentrations ranged from 0.005 μM to 100 μM.
The preceding data, allows us to calculate selectivity index (SI) values, based on the ratio of CC50 to EC50 in MT-4 cells (the standard assay used in this work).

HIV-1 NL4-3 w.t. virus = assay: microbe, parasite or virus in culture; type: cell-based
HIV-1 IIIB in U937 cells = assay: Drug susceptibility assay, IIIB in U937 cells; type: cell-based; settings: Human immunodeficiency virus 1, IIIB, U-937, read-out: Average EC50 Values ± Standard Deviation, host U937, virus IIIB
Source text: as §1

[10] = Cellular cytotoxicity, 4 days, MTS, IM9; type: cell-based; settings: human, Table 21, read-out: Average CC50 Values ± Standard Deviation, IM9
Method: as §3

[11] = Table 20, vs 10% FBS only, listed as Cmpd I

## CO[P@](=O)(c1cc(C)cc(/C=C/C#N)c1)c1c(C(N)=O)[nH]c2ccc(Cl)c(F)c12 [Compound I, (2-Carbamoyl-5-chloro-4-fluoro-1H-indol-3-yl)-[3-((E)-2-cyano-vinyl)-5-methyl-phenyl]-(R)-phosphinic acid methyl ester]
[1]
  CC50 at 4 days: 16600 to 32900 nM
[2]
  EC50: 0.7 ± 0.1 nM
HIV-1 BH10 in U937 cells
  EC50: 0.6 ± 0.2 nM
[3]
  CC50 at 4 days: 16600 ± 400 nM
[4]
  CC50: 23500 to 31500 nM
HIV-1 IIIB in H9 cells
  EC50: 0.6 ± 0.1 nM
[5]; Human immunodeficiency virus 1, MT4, 96 h, read-out: mean EC50, wild-type BH10 virus in MT-4 cells, p24 ELISA, 4 day
  EC50: 1 nM
[5]; Human immunodeficiency virus 1, MT4, read-out: Average EC50 Values ± Standard Deviation, host MT-4, virus BH10, Table 17
  EC50: 1 ± 0.4 nM
[5]; Human immunodeficiency virus 1, MT4, read-out: EC50, BH10, Example 16 comparative tables, unit inferred, several lines per compound
  EC50: 1 ± 0.5 nM
[5]; Table 7, EC50 mutant / EC50 wild-type
  Fold Change, W.T.: 1 fold
[5]; read-out: EC50, BH10, Example 16 comparative tables, unit inferred, several lines per compound
  EC50: 0.7 nM
[5]; read-out: mean EC50, wild-type BH10 virus in MT-4 cells, p24 ELISA, 4 day
  EC50: 1.2 nM
[6]; MT4, read-out: Average EC50 Values ± Standard Deviation, K103R/V179D/P225H
  EC50: 10 ± 1.5 nM
[6]; MT4, read-out: EC50, K103R/V179D/P225H triple mutant virus
  EC50: 10 nM
[6]
  Fold Change, K103R/V179D/P225H: 11.1±4.1 fold
[6]; listed as Cmpd. I
  Fold Change, K103R/V179D/P225H: 11.1 ± 4.1 fold
HIV-1 IIIB w.t. virus; Human immunodeficiency virus 1, MT4, Table 15, CPE, read-out: Average EC50 Values ± Standard Deviation, W.T.
  EC50: 1 ± 0.4 nM
HIV-1 IIIB w.t. virus; Table 16
  Fold Change, W.T.: 1 fold
[7]
  EC50: 0.7 ± 0.3 nM
[8]
  EC50: 0.25 to 3.2 nM
HIV-1 BH10 W.T.; Human immunodeficiency virus 1, read-out: Average EC50 Values ± Standard Deviation, 10% Fetal Bovine Serum
  EC50: 1.1 ± 0.4 nM
HIV-1 BH10 W.T.; Human immunodeficiency virus 1, read-out: Average EC50 Values ± Standard Deviation, 10% Fetal Bovine Serum + AAG
  EC50: 2.9 ± 1.2 nM
HIV-1 BH10 W.T.; Human immunodeficiency virus 1, read-out: Average EC50 Values ± Standard Deviation, 45% Human Serum
  EC50: 14.6 ± 6.3 nM
HIV-1 BH10 W.T.; Human immunodeficiency virus 1, read-out: Average EC50 Values ± Standard Deviation, 45% Human Serum + AAG
  EC50: 19 ± 1.7 nM
HIV-1 BH10 W.T.; Human immunodeficiency virus 1, read-out: mean EC50 values, 45% HS+AAG
  EC50: 19 nM
HIV-1 BH10 W.T.; Table 20
  Fold Change, 10% Fetal Bovine Serum: 1 fold
HIV-1 BH10 W.T.; Table 20, vs 10% FBS only
  Fold Change, 45% Human Serum: 15.9 ± 11.1 fold
  Fold Change, 45% Human Serum + AAG: 24.8 fold and 19.5 fold
HIV-1 BH10 W.T.; [11]
  Fold Change, 10% Fetal Bovine Serum + AAG: 2.7 ± 0.7 fold
  Fold Change, 45% Human Serum + AAG: 19.5 ± 7.6 fold
HIV-1 NL4-3 K103N virus; Human immunodeficiency virus 1, NL43, MT4, read-out: Average EC50 Values ± Standard Deviation, K103N
  EC50: 1.4 ± 0.4 nM
HIV-1 NL4-3 K103N virus; Table 11, NL4-3
  Fold Change, K103N: 0.7 ± 0.2 fold
HIV-1 W.T. (NL4-3) virus; read-out: Average EC50 Values ± Standard Deviation, W.T. (NL4-3)
  EC50: 1.5 ± 0.7 nM
HIV-1 W.T. (NL4-3) virus; read-out: mean EC50, NL4-3 strain in human PBMC
  EC50: 1.5 nM
[9]
  CC50 at 4 days: 27000 nM
HIV-1 NL4-3 w.t. virus; Human immunodeficiency virus 1, NL43, MT4, read-out: Average EC50 Values ± Standard Deviation, W.T.
  EC50: 2 ± 0.1 nM
HIV-1 NL4-3 w.t. virus; Human immunodeficiency virus 1, NL43, MT4, read-out: Average EC50 Values ± Standard Deviation, host MT-4, virus NL4-3
  EC50: 2 ± 0.1 nM
HIV-1 NL4-3 w.t. virus; Table 11, NL4-3
  Fold Change, W.T.: 1 fold
HIV-1 IIIB in U937 cells
  EC50: 0.5 ± 0.1 nM
[10]
  CC50 at 4 days: 32900 ± 2600 nM

From patent publication US8486991B2, “Enantiomerically pure phosphoindoles as HIV inhibitors” (Idenix Pharmaceuticals, Inc., priority 2006, dated 2013)
